Where a chain is given by its changes, count along the chain named. pKd: −log10 of the molar value.
What was measured:
Type in all cases: binding
[1] = target: T1, TTN5 (TITAN 5) (Arabidopsis thaliana, UniProt Q9ZPX1); assay: pull-down of GST-TTN5, bound nucleotide by HPLC; conditions: GST fusion; excess free GppNHp; single experiment
T1 construct: gene ARL2
T1 sequence (Q9ZPX1 1-185 limits assumed): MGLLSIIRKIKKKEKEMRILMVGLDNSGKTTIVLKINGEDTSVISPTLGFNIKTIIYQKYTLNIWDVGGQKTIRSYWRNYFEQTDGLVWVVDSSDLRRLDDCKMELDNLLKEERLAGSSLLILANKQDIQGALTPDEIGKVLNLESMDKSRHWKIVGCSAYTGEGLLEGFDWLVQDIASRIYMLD

[2] = target: T2, TTN5 (TITAN 5) (Arabidopsis thaliana, UniProt Q9ZPX1, Q70L); assay: stopped-flow fluorimetry, koff/kon
T2 construct: gene ARL2
T2 sequence (Q9ZPX1 1-185 Q70L limits assumed): T1 sequence (Q9ZPX1 1-185 limits assumed) with Q70L

[3] = target: T3, TTN5 (TITAN 5) (Arabidopsis thaliana, UniProt Q9ZPX1, T30N); assay: stopped-flow fluorimetry, koff/kon
T3 construct: gene ARL2
T3 sequence (Q9ZPX1 1-185 T30N limits assumed): T1 sequence (Q9ZPX1 1-185 limits assumed) with T30N

[4] = target: T1, TTN5 (TITAN 5); assay: stopped-flow fluorimetry, koff/kon

Row | SMILES | pull-down of GST-TTN5, bound nucleotide by HPLC [1] | pKd [2] | pKd [3] | pKd [4]
1 | Nc1nc2c(ncn2[C@@H]2O[C@H](COP(=O)(O)OP(=O)(O)NP(=O)(O)O)[C@@H](O)[C@H]2O)c(=O)[nH]1 [GppNHp] | Isolated GST–TTN5 bound to increasing amounts of GppNHp |  |  | 
2 | CNc1ccccc1C(=O)O[C@H]1C[C@H](n2cnc3c(=O)[nH]c(N)nc32)O[C@@H]1COP(=O)(O)OP(=O)(O)O [mdGDP, 2-deoxy-3-O-N-methylanthraniloyl GDP] |  | 7.21 | 5.51 | 6.57
